Experimental data: patent US10745401B2, “Condensed lactam derivative” (Sumitomo Dainippon Pharma Co., Ltd., priority 2018, dated 2020)
pEC50, pIC50, pKi: −log10 of the molar value.

Columns and labels:
human 5-HT1A receptor [1] = molecular target: T1, human 5-HT1A receptor (Homo sapiens (Human), UniProt P08908); test: Test 1: binding activity for human 5-HT1A receptor ([3H]8-OH-DPAT, CHO cell membrane fraction)
Outline: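 Membranes incubated with [3H]8-OH-DPAT and compound for 60 min at room temperature, then filtered on polyethylenimine-coated glass-fibre plates and counted by liquid scintillation. IC50 from Hill analysis; Ki = IC50/(1+S/Kd), Kd from saturation binding on the same membranes.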

human 5-HT2A receptor [2] = molecular target: T2, human 5-HT2A receptor (Homo sapiens (Human), UniProt P28223); test: Test 1: binding activity for human 5-HT2A receptor ([3H]Ketanserin, CHO cell membrane fraction)
T2 sequence (P28223 whole entry): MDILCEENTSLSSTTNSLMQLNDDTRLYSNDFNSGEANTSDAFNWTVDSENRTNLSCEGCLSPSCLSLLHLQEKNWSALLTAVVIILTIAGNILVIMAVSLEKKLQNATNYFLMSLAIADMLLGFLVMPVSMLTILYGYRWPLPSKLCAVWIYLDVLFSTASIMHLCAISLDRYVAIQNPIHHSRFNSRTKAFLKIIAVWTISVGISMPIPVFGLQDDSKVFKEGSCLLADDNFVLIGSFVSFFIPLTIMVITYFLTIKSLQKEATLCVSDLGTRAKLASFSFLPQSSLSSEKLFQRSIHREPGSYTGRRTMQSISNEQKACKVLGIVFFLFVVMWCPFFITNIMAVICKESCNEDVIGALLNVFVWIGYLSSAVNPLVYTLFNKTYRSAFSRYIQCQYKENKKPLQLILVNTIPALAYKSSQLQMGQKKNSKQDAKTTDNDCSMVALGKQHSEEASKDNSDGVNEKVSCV
Outline: (§1)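 CHO-cell membranes with [3H]ketanserin (5-HT2A) or [3H]spiperone (D2) were incubated with compound for 60 min at room temperature, then filtered, and bound radioactivity was counted by scintillation. Ki = IC50/(1+S/Kd), with ligand Kd from saturation binding on the same membranes.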

[3] = Test 4: metabolic stability test in human hepatic microsome; assay type: in vitro ADME; conditions: 0.1 mg/mL microsome, 0.1 μmol/L compound, 37° C., 30 minutes
Outline: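 Compound at 0.1 μmol/L incubated 30 min at 37° C with human liver microsomes (0.1 mg/mL) and NADPH (3.2 mmol/L) in 25 mmol/L phosphate buffer, pH 7.4. Residual compound measured by LC-MS; stability (mL/min/mg protein) = −LN(residual ratio)/30/0.1.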

hERG channel = hERG channel (Homo sapiens (Human), UniProt Q12809); test: Test 6-1: inhibitory activity for hERG channel (auto patch clamp, Qpatch); assay type: cell-based; conditions: for hERG inhibition IC50 (nmol/L)/5-HT1A Ki (nmol/L): ratio of hERG IC50 to 5-HT1A Ki; for hERG inhibition IC50 (nmol/L)/5-HT2A Ki (nmol/L): ratio of hERG IC50 to 5-HT2A Ki; for pIC50: whole cell auto patch clamp, hERG-CHO cells, read-out: hERG inhibition IC50
Sequence of hERG channel (Q12809 whole entry): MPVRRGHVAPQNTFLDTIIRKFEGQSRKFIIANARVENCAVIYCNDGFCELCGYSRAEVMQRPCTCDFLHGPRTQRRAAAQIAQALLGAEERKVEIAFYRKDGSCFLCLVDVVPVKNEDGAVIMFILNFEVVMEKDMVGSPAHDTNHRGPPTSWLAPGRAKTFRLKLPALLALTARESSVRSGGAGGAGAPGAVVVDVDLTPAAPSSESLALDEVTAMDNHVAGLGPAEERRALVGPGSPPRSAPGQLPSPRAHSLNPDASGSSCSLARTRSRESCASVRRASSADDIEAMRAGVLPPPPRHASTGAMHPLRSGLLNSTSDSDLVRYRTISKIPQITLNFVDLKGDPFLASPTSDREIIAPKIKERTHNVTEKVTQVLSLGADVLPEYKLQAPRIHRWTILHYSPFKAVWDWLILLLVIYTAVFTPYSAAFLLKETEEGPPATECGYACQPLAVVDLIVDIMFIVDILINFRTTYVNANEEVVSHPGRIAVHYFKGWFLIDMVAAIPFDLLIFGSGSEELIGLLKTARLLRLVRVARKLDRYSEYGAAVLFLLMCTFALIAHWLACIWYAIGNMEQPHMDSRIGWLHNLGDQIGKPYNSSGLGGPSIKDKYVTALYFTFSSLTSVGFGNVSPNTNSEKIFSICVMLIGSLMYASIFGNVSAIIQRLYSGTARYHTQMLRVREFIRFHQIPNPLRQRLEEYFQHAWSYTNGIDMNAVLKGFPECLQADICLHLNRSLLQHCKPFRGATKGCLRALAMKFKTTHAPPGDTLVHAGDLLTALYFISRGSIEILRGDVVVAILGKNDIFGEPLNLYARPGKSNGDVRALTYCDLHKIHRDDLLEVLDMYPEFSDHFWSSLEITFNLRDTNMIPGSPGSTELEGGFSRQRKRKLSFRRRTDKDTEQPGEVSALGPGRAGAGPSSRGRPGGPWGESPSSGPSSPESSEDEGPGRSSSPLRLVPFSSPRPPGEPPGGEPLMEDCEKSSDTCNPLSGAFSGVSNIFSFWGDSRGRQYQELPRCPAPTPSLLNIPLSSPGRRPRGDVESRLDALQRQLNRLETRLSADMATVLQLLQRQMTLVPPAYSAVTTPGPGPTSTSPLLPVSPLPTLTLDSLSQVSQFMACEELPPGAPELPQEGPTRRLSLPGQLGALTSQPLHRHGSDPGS
Outline: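 Whole-cell patch clamp on an automated system using CHO cells stably expressing human hERG (IKr); 15 s pulse interval. Four increasing compound concentrations applied cumulatively; mean peak tail current from last 3 stimulations per concentration used. IC50 from inhibition versus pre-compound current, fitted by Hill equation.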

human 5-HT2A receptor [4] = molecular target: T2, human 5-HT2A receptor; test: Test 3: antagonist activity for human 5-HT2A receptor (aequorin luminescence, CHO-K1 cells); assay type: cell-based; conditions: CHO-K1 cells, 1 nmol/L 5-HT
Outline: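 CHO-K1 cells transiently co-expressing aequorin, Gα16 and receptor; compound in DMSO added and luminescence recorded on FDSS/μCELL.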

human D2 receptor = human D2 receptor (Homo sapiens (Human), UniProt P14416); test: Test 1: binding activity for human D2 receptor ([3H]Spiperone, CHO cell membrane fraction); conditions: for pKi: human D2 receptor, [3H]Spiperone; for D2 Ki/5-HT1A Ki / D2 Ki/5-HT2A Ki: selectivity ratio
Sequence of human D2 receptor (P14416 whole entry): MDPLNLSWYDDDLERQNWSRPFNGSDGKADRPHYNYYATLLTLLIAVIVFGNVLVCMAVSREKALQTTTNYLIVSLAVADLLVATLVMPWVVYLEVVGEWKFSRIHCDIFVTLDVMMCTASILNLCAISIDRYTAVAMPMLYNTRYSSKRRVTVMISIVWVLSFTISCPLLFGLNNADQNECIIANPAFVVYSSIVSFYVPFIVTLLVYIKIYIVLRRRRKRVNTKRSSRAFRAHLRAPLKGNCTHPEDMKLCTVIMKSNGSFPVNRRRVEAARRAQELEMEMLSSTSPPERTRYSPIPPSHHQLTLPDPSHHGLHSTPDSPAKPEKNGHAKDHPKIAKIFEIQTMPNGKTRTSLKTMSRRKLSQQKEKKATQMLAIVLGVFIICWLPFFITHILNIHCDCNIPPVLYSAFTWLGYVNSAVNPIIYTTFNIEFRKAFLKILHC
Outline: as §1

human 5-HT1A receptor [5] = molecular target: T1, human 5-HT1A receptor; test: Test 2: agonist activity for human 5-HT1A receptor ([35S]GTPγS binding); assay type: biochemical; conditions: for pEC50: [35S]GTPγS binding, concentration at which half the activity of Emax was obtained; for Emax at 10 µM: agonist activity in the presence of 10 μM of compound, relative to 100 μmol/L 5-HT
Outline: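 Membranes from CHO cells expressing human 5-HT1A incubated with compound, GDP-containing buffer and [35S]GTPγS for 60 min at room temperature. Bound radioactivity collected by glass-fibre filtration and counted by liquid scintillation; agonist activity derived from a formula.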

T1 sequence (P08908 whole entry): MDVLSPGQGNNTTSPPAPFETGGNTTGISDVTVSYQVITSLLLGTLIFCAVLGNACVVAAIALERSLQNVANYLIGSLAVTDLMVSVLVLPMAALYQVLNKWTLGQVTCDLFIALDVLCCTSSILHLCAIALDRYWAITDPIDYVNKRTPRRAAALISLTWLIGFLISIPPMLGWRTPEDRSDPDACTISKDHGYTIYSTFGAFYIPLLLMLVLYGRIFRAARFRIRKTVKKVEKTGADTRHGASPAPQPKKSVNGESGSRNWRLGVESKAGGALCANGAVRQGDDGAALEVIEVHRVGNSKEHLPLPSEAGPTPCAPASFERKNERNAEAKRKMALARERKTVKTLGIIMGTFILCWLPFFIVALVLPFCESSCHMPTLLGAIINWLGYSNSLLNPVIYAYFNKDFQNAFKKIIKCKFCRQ

## Cc1nc2c(o1)CCCN(CCN1CCC(c3noc4ccccc34)CC1)C2=O [Example 157]
Human 5-HT1A receptor [1]
  pKi: 8.67
Human 5-HT2A receptor [2]
  pKi: 7.84
[3]
  Metabolic stability in human hepatic microsome: <0.05 mL/min/mg protein
hERG channel
  hERG inhibition IC50 (nmol/L)/5-HT1A Ki (nmol/L): 754
  hERG inhibition IC50 (nmol/L)/5-HT2A Ki (nmol/L): 110
  pIC50: 5.80
Human 5-HT2A receptor [4]; aequorin luminescence
  pIC50: 6.94
Human D2 receptor
  pKi: 6.19
  D2 Ki/5-HT1A Ki: 302.1
  D2 Ki/5-HT2A Ki: 44.2
Human 5-HT1A receptor [5]
  pEC50: 7.28
  Emax at 10 µM: 47%

## Cc1nc2c(o1)C(=O)N(CCN1CCC(c3noc4ccccc34)CC1)CC2 [Example 35, 5-{2-[4-(1,2-Benzoisoxazol-3-yl)piperidin-1-yl]ethyl}-2-methyl-6,7-dihydro[1,3]oxazolo[5,4-c]pyridin-4(5H)-one]
Human 5-HT1A receptor [1]
  pKi: 8.48
Human 5-HT2A receptor [2]
  pKi: 8.03
[3]
  Metabolic stability in human hepatic microsome: <0.01 mL/min/mg protein
hERG channel
  hERG inhibition IC50 (nmol/L)/5-HT1A Ki (nmol/L): 453
  hERG inhibition IC50 (nmol/L)/5-HT2A Ki (nmol/L): 161
  pIC50: 5.82
Human 5-HT2A receptor [4]
  pIC50: 7.13
Human D2 receptor
  pKi: 5.89
  D2 Ki/5-HT1A Ki: 391
  D2 Ki/5-HT2A Ki: 139
Human 5-HT1A receptor [5]
  pEC50: 7.14
  Emax at 10 µM: 68%

## O=C1c2ncoc2CCN1CCN1CCC(c2noc3ccccc23)CC1 [Example 190, 5-{2-[4-(1,2-Benzoisoxazol-3-yl)piperidin-1-yl]ethyl}-6,7-dihydro[1,3]oxazolo[4,5-c]pyridin-4(5H)-one]
Human 5-HT1A receptor [1]
  pKi: 7.30
Human 5-HT2A receptor [2]
  pKi: 7.29
[3]
  Metabolic stability in human hepatic microsome: <0.05 mL/min/mg protein
hERG channel
  hERG inhibition IC50 (nmol/L)/5-HT1A Ki (nmol/L): 32
  hERG inhibition IC50 (nmol/L)/5-HT2A Ki (nmol/L): 31
  pIC50: 5.80
Human 5-HT2A receptor [4]; aequorin luminescence
  pIC50: 6.63
Human D2 receptor
  pKi: 5.61
  D2 Ki/5-HT1A Ki: 49.3
  D2 Ki/5-HT2A Ki: 47.9
Human 5-HT1A receptor [5]
  pEC50: 5.14
  Emax at 10 µM: 11%

## Cn1ncc2c1C(=O)N(CCN1CCC(c3noc4ccccc34)CC1)CC2 [Example 96, 6-{2-[4-(1,2-Benzoisoxazol-3-yl)piperidin-1-yl]ethyl}-1-methyl-1,4,5,6-tetrahydro-7H-pyrazolo[3,4-c]pyridin-7-one]
Human 5-HT1A receptor [1]
  pKi: 7.93
Human 5-HT2A receptor [2]
  pKi: 8.14
[3]
  Metabolic stability in human hepatic microsome: 0.019 mL/min/mg protein
hERG channel
  hERG inhibition IC50 (nmol/L)/5-HT1A Ki (nmol/L): 97
  hERG inhibition IC50 (nmol/L)/5-HT2A Ki (nmol/L): 159
  pIC50: 5.92
Human 5-HT2A receptor [4]
  pIC50: 7.70
Human D2 receptor
  pKi: 6.99
  D2 Ki/5-HT1A Ki: 9
  D2 Ki/5-HT2A Ki: 14
Human 5-HT1A receptor [5]
  pEC50: 7.18
  Emax at 10 µM: 33%

## Cc1nc2c(o1)C(=O)N(CCN1CCC(c3noc4ccccc34)CC1)CCC2 [Example 154]
Human 5-HT1A receptor [1]
  pKi: 7.69
Human 5-HT2A receptor [2]
  pKi: 7.88
[3]
  Metabolic stability in human hepatic microsome: <0.05 mL/min/mg protein
hERG channel
  hERG inhibition IC50 (nmol/L)/5-HT1A Ki (nmol/L): 35
  hERG inhibition IC50 (nmol/L)/5-HT2A Ki (nmol/L): 54
  pIC50: 6.15
Human 5-HT2A receptor [4]; aequorin luminescence
  pIC50: 6.50
Human D2 receptor
  pKi: 6.14
  D2 Ki/5-HT1A Ki: 35.6
  D2 Ki/5-HT2A Ki: 54.9
Human 5-HT1A receptor [5]
  pEC50: 7.35
  Emax at 10 µM: 58%

## Cc1cncc2c1CCN(CCN1CCN(c3noc4ccccc34)CC1)C2=O [Example 137]
Human 5-HT1A receptor [1]
  pKi: 6.73
Human 5-HT2A receptor [2]
  pKi: 7.95
[3]
  Metabolic stability in human hepatic microsome: <0.05 mL/min/mg protein
hERG channel
  hERG inhibition IC50 (nmol/L)/5-HT1A Ki (nmol/L): 41
  hERG inhibition IC50 (nmol/L)/5-HT2A Ki (nmol/L): 686
  pIC50: 5.11
Human 5-HT2A receptor [4]; aequorin luminescence
  pIC50: 8.62
Human D2 receptor
  pKi: 5.97
  D2 Ki/5-HT1A Ki: 5.8
  D2 Ki/5-HT2A Ki: 96.4
Human 5-HT1A receptor [5]
  pEC50: 5.33
  Emax at 10 µM: 19%

## Cn1ccc2c1CCCN(CCN1CCC(c3noc4ccccc34)C1)C2=O (stereo not drawn) [Example 175]
Human 5-HT1A receptor [1]
  pKi: 7.75
Human 5-HT2A receptor [2]
  pKi: 7.86
[3]
  Metabolic stability in human hepatic microsome: 0.125 mL/min/mg protein
hERG channel
  hERG inhibition IC50 (nmol/L)/5-HT1A Ki (nmol/L): 197
  hERG inhibition IC50 (nmol/L)/5-HT2A Ki (nmol/L): 253
  pIC50: 5.46
Human 5-HT2A receptor [4]; aequorin luminescence
  pIC50: 6.51
Human D2 receptor
  pKi: 5.46
  D2 Ki/5-HT1A Ki: 195.2
  D2 Ki/5-HT2A Ki: 251.4
Human 5-HT1A receptor [5]
  pEC50: 6.18
  Emax at 10 µM: 36%
